Measurements as given in patent publication US4767764A, “Alkoxyalkyl and alkylmercaptoalkyl substituted bridged benzofuroisoquinolines having opioid antagonist and/or appetite-controlling properties” (E. I. Du Pont de Nemours and Company, priority 1986, dated 1988).

How the values were obtained:
[1] = molecular target: T1, kappa opioid receptor (U-50,488H analgesia) (Mus musculus, UniProt P33534); experiment: in vivo; parameters: species or system mouse (male CF1); conditions: sc, read-out: ED50, antagonism of U-50,488H analgesia in PQW test (kappa antagonist potency)
T1 construct: Male CF1 mice (fasted 17-21 hours); from tissue; host or cells: live male CF1 mice (in vivo, whole animal; endogenous receptor)
T1 sequence (P33534 whole entry): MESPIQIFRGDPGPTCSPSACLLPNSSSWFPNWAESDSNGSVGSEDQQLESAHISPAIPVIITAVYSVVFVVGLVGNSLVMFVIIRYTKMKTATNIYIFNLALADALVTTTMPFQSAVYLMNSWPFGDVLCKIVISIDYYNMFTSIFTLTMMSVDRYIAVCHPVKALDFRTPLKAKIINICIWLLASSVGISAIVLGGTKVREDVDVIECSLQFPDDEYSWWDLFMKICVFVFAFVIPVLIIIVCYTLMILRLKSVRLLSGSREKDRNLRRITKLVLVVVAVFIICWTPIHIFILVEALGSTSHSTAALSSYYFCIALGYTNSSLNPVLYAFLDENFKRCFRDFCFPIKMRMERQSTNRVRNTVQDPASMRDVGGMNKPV

[2] = molecular target: T2, mu opioid receptor (morphine analgesia) (Mus musculus, UniProt P42866); experiment: antagonism of morphine analgesia in PQW test (mu antagonist potency); assay type: in vivo, mouse (male CF1); conditions: sc, read-out: ED50, antagonism of morphine analgesia in PQW test (mu antagonist potency)
T2 construct: Male CF1 mice (fasted 17-21 hours); from tissue; host or cells: live male CF1 mice (in vivo, whole animal; endogenous receptor)
T2 sequence (P42866 whole entry): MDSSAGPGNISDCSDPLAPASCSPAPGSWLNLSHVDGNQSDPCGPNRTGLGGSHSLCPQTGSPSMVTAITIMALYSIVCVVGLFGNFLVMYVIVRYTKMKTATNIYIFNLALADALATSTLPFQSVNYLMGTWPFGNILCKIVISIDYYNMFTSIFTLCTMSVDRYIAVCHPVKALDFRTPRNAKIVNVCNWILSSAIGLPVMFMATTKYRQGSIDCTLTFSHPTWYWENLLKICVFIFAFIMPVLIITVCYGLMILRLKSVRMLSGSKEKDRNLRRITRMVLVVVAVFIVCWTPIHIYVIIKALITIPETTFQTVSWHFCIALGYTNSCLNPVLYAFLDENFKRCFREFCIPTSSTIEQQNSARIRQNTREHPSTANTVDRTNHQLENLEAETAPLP

[3] = test system: PQ-induced writhing in mice; experiment: animal or person; assay type: in vivo, mouse (male CF1); conditions: Mus musculus, sc, read-out: ED50, antagonism of PQ-induced writhing in mice
food intake = conditions: in vivo; cited from earlier work
[4] = test system: animal models of hemorrhagic, septic, and neurogenic shock; conditions: in vivo; cited from earlier work
spinal cord injury = conditions: rabbit, versus WIN 44,441-3; cited from earlier work
[5] = test system: μ (mu), κ (kappa) and δ (delta) opioid receptors; conditions: established opioid antagonists; cited from earlier work
kappa receptor = conditions: cited from earlier work
feeding = conditions: in vivo; cited from earlier work

Row | SMILES | ED50 [1] | ED50 [2] | ED50 [3] | further results
1 | CCCN1CCC23c4cccc(O)c4OC2C2CCC3(C1)C(COC)C2 (stereo not drawn) [Example 1, 5-Methoxymethyl-3-n-propyl-1,2,3,4,5,6,7,7a-octahydro-4a,7-ethanobenzofuro[3,2-e]isoquinolin-9-ol] | 0.004 mg/kg | 0.014 mg/kg | > 81 mg/kg | 
2 | CCCN1CCC23c4cccc(O)c4OC2C2CCC3(C1)C(COCC)C2 (stereo not drawn) [Example 2, 5-Ethoxymethyl-3-n-propyl-1,2,3,4,5,6,7,7a-octahydro-4a,7-ethanobenzofuro[3,2-e]isoquinolin-9-ol] | 0.012 mg/kg | 0.024 mg/kg | > 81 mg/kg | 
3 | CCCOCC1CC2CCC13CN(CCC)CCC31c3cccc(O)c3OC21 (stereo not drawn) [Example 3, 5-(n-Propoxymethyl)-3-n-propyl-1,2,3,4,5,6,7,7a-octahydro-4a,7-ethanobenzofuro[3,2-e]isoquinolin-9-ol] | 0.025 mg/kg | 0.06 mg/kg | > 81 mg/kg | 
4 | CCCOCC1CC2C=CC13CN(CCC)CCC31c3cccc(O)c3OC21 (stereo not drawn) [Example 4, 5-(n-propoxymethyl)-3-n-propyl-1,2,3,4,5,6,7,7a-octahydro-4a,7-ethenobenzofuro[3,2-e]isoquinolin-9-ol] | 0.05 mg/kg | 0.19 mg/kg | > 81 mg/kg | 
5 | CCCN1CCC23c4cccc(O)c4OC2C2CCC3(C1)C(CSC)C2 (stereo not drawn) [Example 5, 5-methylthiomethyl-3-n-propyl-1,2,3,4,5,6,7,7a-octahydro-4a,7-ethanobenzofuro[3,2-e]isoquinolin-9-ol] | 0.063 mg/kg | 0.1 mg/kg | > 81 mg/kg | 
6 | COCC1CC2CCC13CN(CC1CC1)CCC31c3cccc(O)c3OC21 (stereo not drawn) [Example 6, 3-Cyclopropylmethyl-5-methoxymethyl-1,2,3,4,5,6,7,7a-octahydro-4a,7-ethanobenzofuro[3,2-e]isoquinolin-9-ol] | 0.007 mg/kg | 0.008 mg/kg | > 81 mg/kg | 
7 | Oc1cccc2c1OC1C3CCC4(CN(CC5CC5)CCC214)C(COCCCc1ccccc1)C3 (stereo not drawn) [Example 7, 3-cyclopropylmethyl-5-(3-phenyl-n-propoxymethyl)-1,2,3,4,5,6,7,7a-octahydro-4a,7-ethanolbenzofuro[3,2-e]isoquinolin-9-ol] | 0.24 mg/kg | 0.29 mg/kg | > 81 mg/kg | 
8 | CCC1C2Cc3ccc(O)cc3C1(CC)CCN2Cc1ccoc1 (stereo not drawn) [MR 2266, reference compound] | 0.115 mg/kg | 0.109 mg/kg | > 81 mg/kg | 
9 | C=CCN1CC[C@]23c4c5ccc(O)c4O[C@H]2C(=O)CC[C@@]3(O)[C@H]1C5 [Naloxone, naloxone] |  |  | > 81 mg/kg | decrease of food intake (food intake): decrease food intake in several animal species; effective doses for food intake versus mu mediated effects (food intake): much larger than those useful in reversing mu mediated effects; effective doses in shock models versus mu mediated effects [4]: several orders of magnitude higher than doses useful in reversing mu mediated effects; improvement of hemodynamic parameters in shock models [4]: improve hemodynamic parameters in a variety of animal models of hemorrhagic, septic, and neurogenic shock; effectiveness in spinal stroke model (spinal cord injury): less effective than WIN 44,441-3
10 | O=C1CC[C@@]2(O)[C@H]3Cc4ccc(O)c5c4[C@@]2(CCN3CC2CC2)[C@H]1O5 [Naltrexone, naltrexone] |  |  | > 81 mg/kg | opioid receptor binding in words [5]: bind to all three types of receptors, with greatest affinity for the mu receptor; decrease of food intake (food intake): decrease food intake in several animal species; effective doses for food intake versus mu mediated effects (food intake): much larger than those useful in reversing mu mediated effects
11 | CN1CC[C@]2(C)c3cc(O)ccc3C[C@H]1C2(C)CCC(=O)CCC1CCCC1.CS(=O)(=O)O (stereo partly drawn) [WIN 44,441-3] |  |  |  | kappa receptor activity/selectivity in words (kappa receptor): enhanced activity at the kappa receptor
12 | CC[C@]12CCN(CC3CC3)[C@H](C(=O)c3ccc(O)cc31)[C@@H]2C [ethylketocyclazocine] |  |  |  | stimulation of feeding (feeding): more potent stimulators of feeding than the mu agonist morphine
